Measurements as given in US20240148821A1, “PHARMACEUTICAL USE OF CYCLIC PEPTIDE COMPOUND” (CHUGAI SEIYAKU KABUSHIKI KAISHA, priority 2021, published 2024).
Numbered stars: 1 amine (or outer) side, 2 acyl side, 3 side chain; on linkers, the order of the positions; unused ones are H or OH. Bridge positions count the residues as written; N and C are the ends. Square brackets hold non-standard residues; d marks the D form. Peptide text beside a SMILES is read from it. * marks the point of attachment. hPhe(3-Cl-4-CF3) = N[C@@H](CCc1ccc(C(F)(F)F)c(Cl)c1)C(=O)O; NEtPhe(4-CF3) = CCN[C@@H](Cc1ccc(C(F)(F)F)cc1)C(=O)O; NMePhe(4-CF3) = CN[C@@H](Cc1ccc(C(F)(F)F)cc1)C(=O)O; hPhe(4-CF3) = N[C@@H](CCc1ccc(C(F)(F)F)cc1)C(=O)O; 3Oxa8azabicyclo(3.2.1)octane = C1CC2COCC1N2*; NEtPhe(4-Me) = CCN[C@@H](Cc1ccc(C)cc1)C(=O)O; NMePhe(4-Cl) = CN[C@@H](Cc1ccc(Cl)cc1)C(=O)O; NMePhe(4-Me) = CN[C@@H](Cc1ccc(C)cc1)C(=O)O; NMedβ3hAla = C[C@H](CC(=O)[*:2])N(C)[*:1]; NMeGly(cPent) = CN[C@H](C(=O)O)C1CCCC1; Phe(3-I) = N[C@@H](Cc1cccc(I)c1)C(=O)O; Pro(4,4-F2) = O=C(O)[C@@H]1CC(F)(F)CN1; X26 = CC(C)=CC[C@H](N[*:1])C(=O)[*:2]; NMeCha = CN[C@@H](CC1CCCCC1)C(=O)O; Hyp = O=C(O)[C@@H]1C[C@@H](O)CN1; NMeChg = CN[C@H](C(=O)O)C1CCCCC1; NMeI = CC[C@H](C)[C@H](NC)C(=O)O; NMeT = CN[C@H](C(=O)O)[C@@H](C)O; NMeD = CN[C@@H](CC(=O)O)C(=O)O; NMeL = CN[C@@H](CC(C)C)C(=O)O; NMeV = CN[C@H](C(=O)O)C(C)C; d(β3hA) = C[C@@H](N)CC(=O)O; NMeA = CN[C@@H](C)C(=O)O; NMeAib = CNC(C)(C)C(=O)O; Piperidide = C1CCN(*)CC1; Ac5c = NC1(C(=O)O)CCCC1; Aze = O=C(O)[C@@H]1CCN1; Ac4c = NC1(C(=O)O)CCC1; Aib = CC(C)(N)C(=O)O; Sar = CNCC(=O)O

Biological target: protein-protein interaction between Kras and SOS1 (biotin-tagged human Kras loaded with GDP, His-tagged human SOS1) (Homo sapiens (Human), UniProt P01116, G12D)
Experiment: Protein-protein interaction inhibition between Kras and SOS1 (KrasG12D-SOS PPI) using AlphaScreen;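 note: kras produced in E. coli, Ni-coupled donor beads and streptavidin acceptor beads, excitation 680 nm with emission detected at 520–620 nm via singlet oxygen transfer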
Assay type: biochemical
Conditions: AlphaScreen; biotin-tagged human Kras loaded with GDP, His-tagged human SOS1; read-out: KRAS G12D-SOS PPI IC50

Structure (SMILES)	IC50 [nM]
CC[C@H](C)[C@@H]1NC(=O)[C@H](CC(C)C)N(C)C(=O)C[C@@H](C)N(C)C(=O)[C@H](C2CCCCC2)N(C)C(=O)C2(CCC2)NC(=O)[C@@H]2CC(F)(F)CN2C(=O)[C@H](CCc2ccc(C(F)(F)F)c(Cl)c2)NC(=O)CN(C)C(=O)[C@H](Cc2ccc(C(F)(F)F)cc2)N(C)C(=O)[C@@H]2CCN2C(=O)[C@H](C)N(C)C1=O [Compound 505] (cyclo([Ac4c][NMeChg][NMedβ3hAla][NMeL]I[NMeA][Aze][NMePhe(4-CF3)][Sar][hPhe(3-Cl-4-CF3)][Pro(4,4-F2)]))	86
CC[C@H](C)[C@@H]1NC(=O)[C@H](CC(C)C)N(C)C(=O)C[C@@H](C(=O)N2C3CCC2COC3)N(C)C(=O)[C@H](C2CCCC2)N(C)C(=O)C2(CCCC2)NC(=O)[C@@H]2CCCN2C(=O)[C@H](CCc2ccc(C(F)(F)F)c(Cl)c2)NC(=O)CN(C)C(=O)[C@H](Cc2ccc(C)cc2)N(CC)C(=O)[C@@H]2CCN2C(=O)[C@H](C)N(C)C1=O [Compound 1236] ([NMeL]I[NMeA][Aze][NEtPhe(4-Me)][Sar][hPhe(3-Cl-4-CF3)]P[Ac5c][NMeGly(cPent)][NMeD]-{3Oxa8azabicyclo(3.2.1)octane}; lactam N-11)	7.3
CC[C@H](C)[C@@H]1NC(=O)[C@H](CC(C)C)N(C)C(=O)C[C@@H](C(=O)N2CCCCC2)N(C)C(=O)[C@H]([C@@H](C)OC)N(C)C(=O)C2(CCCC2)NC(=O)[C@@H]2CCCN2C(=O)[C@H](CCc2ccc(C(F)(F)F)c(Cl)c2)NC(=O)CN(C)C(=O)[C@H](CC2CCCCC2)N(C)C(=O)[C@@H]2CCN2C(=O)[C@H](C)N(C)C1=O [Compound 639] ([NMeL]I[NMeA][Aze][NMeCha][Sar][hPhe(3-Cl-4-CF3)]P[Ac5c][NMeT](Me)[NMeD]-Piperidide; lactam N-11)	14
CC[C@H](C)[C@@H]1NC(=O)[C@H](CC(C)C)N(C)C(=O)C[C@@H](C)N(C)C(=O)[C@H](CC(C)C)NC(=O)C(C)(C)N(C)C(=O)[C@H](CC=C(C)C)NC(=O)[C@H](Cc2cccc(I)c2)NC(=O)CN(C)C(=O)[C@H](Cc2ccc(Cl)cc2)N(C)C(=O)CN(C)C(=O)CN(C)C1=O [Compound 1418] (cyclo(I[Sar][Sar][NMePhe(4-Cl)][Sar][Phe(3-I)][X26][NMeAib]L[NMedβ3hAla][NMeL]))	110
CC[C@H](C)[C@@H]1NC(=O)[C@H](C)N(C)C(=O)C[C@@H](C)NC(=O)[C@H](CC(C)C)N(C)C(=O)C(C)(C)NC(=O)[C@H](CC(C)C)N(C)C(=O)[C@H](CCc2ccc(C(F)(F)F)cc2)NC(=O)CN(C)C(=O)[C@H](CC2CCCCC2)N(C)C(=O)CN(C)C(=O)CN(C)C1=O [Compound 219] (cyclo([Aib][NMeL][d(β3hA)][NMeA]I[Sar][Sar][NMeCha][Sar][hPhe(4-CF3)][NMeL]))	73
CC[C@H](C)[C@@H]1NC(=O)[C@H](CC(C)C)N(C)C(=O)C[C@@H](C(=O)N(C)C)N(C)C(=O)[C@H](C(C)C)N(C)C(=O)C2(CCCC2)NC(=O)[C@@H]2CCCN2C(=O)[C@H](CCc2ccc(C(F)(F)F)c(Cl)c2)NC(=O)CN(C)C(=O)[C@H](Cc2ccc(C)cc2)N(C)C(=O)[C@@H]2CCN2C(=O)[C@H](C)N(C)C1=O [Compound 1653] ([NMeL]I[NMeA][Aze][NMePhe(4-Me)][Sar][hPhe(3-Cl-4-CF3)]P[Ac5c][NMeV][NMeD]-NMe2; lactam N-11)	0.89
CCO[C@@H]1C[C@H]2C(=O)NC3(CCC3)C(=O)N(C)[C@@H](C3CCCCC3)C(=O)N(C)[C@H](C)CC(=O)N(C)[C@@H](CC(C)C)C(=O)N[C@@H]([C@@H](C)CC)C(=O)N(C)[C@@H](C)C(=O)N3CC[C@H]3C(=O)N(CC)[C@@H](Cc3ccc(C)cc3)C(=O)N(C)CC(=O)N[C@@H](CCc3ccc(C(F)(F)F)c(Cl)c3)C(=O)N2C1 [Compound 928] (cyclo([Ac4c][NMeChg][NMedβ3hAla][NMeL]I[NMeA][Aze][NEtPhe(4-Me)][Sar][hPhe(3-Cl-4-CF3)][Hyp](Et)))	27
CCO[C@@H]1C[C@H]2C(=O)NC3(CCCC3)C(=O)N(C)[C@@H]([C@@H](C)CC)C(=O)N(C)[C@H](C)CC(=O)N(C)[C@@H](CC(C)C)C(=O)N[C@@H]([C@@H](C)CC)C(=O)N(C)[C@@H](C)C(=O)N3CC[C@H]3C(=O)N(CC)[C@@H](Cc3ccc(C(F)(F)F)cc3)C(=O)N(C)CC(=O)N[C@@H](CCc3ccc(C(F)(F)F)c(Cl)c3)C(=O)N2C1 [Compound 932] (cyclo([Ac5c][NMeI][NMedβ3hAla][NMeL]I[NMeA][Aze][NEtPhe(4-CF3)][Sar][hPhe(3-Cl-4-CF3)][Hyp](Et)))	5.4
